In the supplement of paper PMC10307832:

Columns and labels:
Assay in all cases: relative viability (nuclei count vs DMSO), 5 days (fraction); higher = more cells survive
AZD8055 + Palbociclib = compound: COc1ccc(-c2ccc3c(N4CCOC[C@@H]4C)nc(N4CCOC[C@@H]4C)nc3n2)cc1CO [AZD8055] + CC(=O)c1c(C)c2cnc(Nc3ccc(N4CCNCC4)cn3)nc2n(C2CCCC2)c1=O [Palbociclib] (partner 0.5 µM)
In short: (§1)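 After 5 days of treatment, lung cancer cells in 1536-well plates were fixed and stained in a single step (final 0.05% Triton X-100, 1% formaldehyde, 1 ug/ml Hoechst) and their nuclei counted on 4× images. Treatment had been applied by pin tool the day after seeding as one drug alone or as a fixed anchor-drug dose with five library-drug doses (not always all listed) in √10 steps. Relative viability is the nuclei count of treated wells divided by that of vehicle wells, and values are medians of duplicate plates.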

AZD8055 + OSI-027 = compound: COc1ccc(-c2ccc3c(N4CCOC[C@@H]4C)nc(N4CCOC[C@@H]4C)nc3n2)cc1CO [AZD8055] + COc1cccc2cc(-c3nc([C@H]4CC[C@H](C(=O)O)CC4)n4ncnc(N)c34)[nH]c12 [OSI-027] (partner 0.5 µM)
In short: as §1

AZD8055 + Foretinib = compound: COc1ccc(-c2ccc3c(N4CCOC[C@@H]4C)nc(N4CCOC[C@@H]4C)nc3n2)cc1CO [AZD8055] + COc1cc2c(Oc3ccc(NC(=O)C4(C(=O)Nc5ccc(F)cc5)CC4)cc3F)ccnc2cc1OCCCN1CCOCC1 [Foretinib] (partner 0.25 µM)
In short: as §1

AZD8055 = compound: COc1ccc(-c2ccc3c(N4CCOC[C@@H]4C)nc(N4CCOC[C@@H]4C)nc3n2)cc1CO [AZD8055]
In short: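 Lung cancer cell lines in 1536-well plates were kept overnight at 37 °C, then pinned with five library-drug doses (not always all listed) spaced by √10 on vehicle-anchored plates. After 5 days without medium change, cells were fixed, permeabilised and Hoechst-stained in one step, imaged at 4×, and nuclei were counted with MetaXpress. Viability is treated-well nuclei divided by vehicle-well nuclei, taken as the median over plates. Plates passed only with control CV below 25% and at least one doubling.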

Row | Cell Line | relative viability (AZD8055 + Palbociclib; first compound 0.01 µM) | relative viability (AZD8055 + Palbociclib; first compound 0.03162 µM) | relative viability (AZD8055 + Palbociclib; first compound 0.1 µM) | relative viability (AZD8055 + Palbociclib; first compound 0.3162 µM) | relative viability (AZD8055 + Palbociclib; first compound 1 µM) | relative viability (AZD8055 + OSI-027; first compound 0.01 µM) | relative viability (AZD8055 + OSI-027; first compound 0.03162 µM) | relative viability (AZD8055 + OSI-027; first compound 0.1 µM) | relative viability (AZD8055 + OSI-027; first compound 0.3162 µM) | relative viability (AZD8055 + OSI-027; first compound 1 µM) | relative viability (AZD8055 + Foretinib; first compound 0.01 µM) | relative viability (AZD8055 + Foretinib; first compound 0.03162 µM) | relative viability (AZD8055 + Foretinib; first compound 0.1 µM) | relative viability (AZD8055 + Foretinib; first compound 0.3162 µM) | relative viability (AZD8055 + Foretinib; first compound 1 µM) | relative viability (AZD8055; 0.01 µM) | relative viability (AZD8055; 0.03162 µM) | relative viability (AZD8055; 0.1 µM) | relative viability (AZD8055; 0.3162 µM) | relative viability (AZD8055; 1 µM)
1 | 201T | 0.354 | 0.314 | 0.278 | 0.251 | 0.303 | 0.786 | 0.746 | 0.676 | 0.484 | 0.383 | 1.34 | 1.08 | 0.892 | 0.391 | 0.328 | 0.955 | 0.987 | 0.907 | 0.635 | 0.487
2 | A-427 | 0.516 | 0.553 | 0.467 | 0.392 | 0.409 | 0.49 | 0.491 | 0.545 | 0.493 | 0.434 | 0.954 | 0.983 | 0.856 | 0.491 | 0.416 | 1.05 | 0.871 | 0.893 | 0.574 | 0.586
3 | ABC-1 | 0.915 | 0.54 | 0.483 | 0.503 | 0.47 | 0.537 | 0.551 | 0.635 | 0.345 | 0.36 | 1.2 | 0.909 | 0.997 | 0.701 | 0.324 | 0.948 | 1.08 | 0.757 | 0.332 | 0.413
4 | BEN | 0.485 | 0.472 | 0.436 | 0.475 | 0.413 | 0.308 | 0.374 | 0.322 | 0.291 | 0.251 | 0.533 | 0.463 | 0.389 | 0.284 | 0.284 | 0.901 | 0.6 | 0.53 | 0.358 | 0.325
5 | CAL-12T | 0.353 | 0.399 | 0.171 | 0.163 | 0.191 | 0.717 | 0.738 | 0.614 | 0.208 | 0.26 | 1.25 | 1.22 | 1.01 | 0.414 | 0.279 | 1.06 | 0.995 | 0.7 | 0.322 | 0.274
6 | COR-L23 | 0.319 | 0.226 | 0.199 | 0.126 | 0.124 | 0.765 | 0.588 | 0.526 | 0.297 | 0.256 | 1.24 | 0.893 | 0.822 | 0.353 | 0.233 | 1.35 | 0.921 | 0.862 | 0.28 | 0.207
7 | COR-L 105 | 0.426 | 0.388 | 0.374 | 0.403 | 0.381 | 0.682 | 0.702 | 0.615 | 0.382 | 0.383 | 1.55 | 1.03 | 1.31 | 0.756 | 0.476 | 1.04 | 0.947 | 0.64 | 0.378 | 0.435
8 | Calu-6 | – | – | – | – | – | – | – | – | – | – | 0.878 | 0.839 | 0.691 | 0.439 | 0.346 | 1.13 | 0.991 | 0.835 | 0.621 | 0.449
9 | ChaGo-K-1 | 1.01 | 0.87 | 0.864 | 0.728 | 0.652 | 0.584 | 0.576 | 0.624 | 0.56 | 0.541 | 1.07 | 0.862 | 0.81 | 0.61 | 0.621 | 1.02 | 0.998 | 0.952 | 0.858 | 0.722
10 | EBC-1 | – | – | – | – | – | – | – | – | – | – | 0.102 | 0.126 | 0.116 | 0.114 | 0.127 | 1.11 | 0.828 | 0.609 | 0.244 | 0.205
11 | EKVX | 0.466 | 0.365 | 0.278 | 0.211 | 0.173 | 0.753 | 0.745 | 0.665 | 0.51 | 0.411 | 0.872 | 1.25 | 0.731 | 0.702 | 0.367 | 1.09 | 1.08 | 0.818 | 0.602 | 0.432
12 | EMC-BAC-2 | 0.477 | 0.437 | 0.376 | 0.31 | 0.29 | 0.364 | 0.387 | 0.358 | 0.291 | 0.284 | 0.965 | 0.846 | 0.809 | 0.393 | 0.347 | 0.992 | 0.784 | 0.698 | 0.356 | 0.336
13 | EPLC-272H | 0.319 | 0.303 | 0.309 | 0.27 | 0.219 | 0.252 | 0.255 | 0.28 | 0.228 | 0.243 | 0.537 | 0.418 | 0.378 | 0.274 | 0.21 | 0.807 | 0.73 | 0.47 | 0.356 | 0.358
14 | H3255 | 0.3 | 0.303 | 0.314 | 0.288 | 0.292 | 0.706 | 0.572 | 0.587 | 0.454 | 0.423 | 0.562 | 0.769 | 0.786 | 0.418 | 0.308 | 1.11 | 0.948 | 0.778 | 0.436 | 0.349
15 | HARA | 0.223 | 0.234 | 0.216 | 0.255 | 0.171 | 0.612 | 0.641 | 0.419 | 0.419 | 0.249 | 0.983 | 0.762 | 0.374 | 0.272 | 0.258 | 1.11 | 1.06 | 0.774 | 0.563 | 0.304
16 | HCC-15 | 0.858 | 0.687 | 0.667 | 0.369 | 0.275 | 0.805 | 0.732 | 0.658 | 0.38 | 0.303 | 1.05 | 0.969 | 0.755 | 0.537 | 0.445 | 1.09 | 1.03 | 0.883 | 0.53 | 0.351
17 | HCC-44 | 0.949 | 0.936 | 0.949 | 0.925 | 0.867 | 0.6 | 0.526 | 0.483 | 0.267 | 0.308 | – | – | – | – | – | 0.99 | 1.03 | 0.844 | 0.552 | 0.473
